Measured values reported in patent US12036226B2, “Methods of treating subjects having diabetes with chronic kidney disease” (Poxel SA, priority 2018, dated 2024).

Test system: subjects with T2DM and CKD stage 3B or 4
Test: Phase 1b 28-day safety, tolerability and PK study in subjects with T2DM and CKD stage 3B or 4
Assay type: in vivo
Description: An Open Label, Parallel Arm Study to Assess the Safety, Tolerability, and Pharmacokinetics of Imeglimin in Subjects with Type 2 Diabetes Mellitus (T2DM) and Moderate to Severe Chronic Kidney Disease (CKD)
This Phase 1b study is to assess the safety, tolerability and pharmacokinetics (PK) of imeglimin in subjects with T2DM and CKD stage 3B or 4.
Subjects will be randomly allocated to receive one of three treatments or placebo.
Doses which are below the minimally acceptable doses are acceptable if stable for 12 weeks prior to Screening as per prescribing information. […] Primary Outcome Measures […]
Safety can be evaluated by assessment of clinical laboratory tests, physical examinations, vital signs measurements, and ECG readings at various time points during the study, and by the documentation of AEs.
The incidence of treatment-emergent adverse events (TEAE) will be summarized by treatment.
Plasma lactate will be summarized descriptively by absolute value at each visit by treatment group, together with the corresponding changes from baseline.
Pharmacokinetics (PK) data can be descriptively summarized by treatment group. PK parameters will be determined using noncompartmental methods. […] Steady-state can be evaluated using the trough concentration data.

[1] = Imeglimin Total, CKD3b (n = 21)

## C[C@H]1N=C(N(C)C)N=C(N)N1 [imeglimin, (6R)—N^2, N^2,6-trimethyl-3,6-dihydro-1,3,5-triazine-2,4-diamine]
1500 mg QD, CKD3b (n = 17)
  Subjects with any TEAE by maximum severity: Grade 3 - Severe: 0 n, %
  Subjects with any TEAE by maximum severity: Grade 4 - Life-threatening: 0 n, %
  Subjects with any TEAE by maximum severity: Grade 5 - Death: 0 n, %
  Subjects with any study drug related TEAE: 1 (14%) n, %
  Subjects with any study drug related TEAE: Grade 1 - Mild: 1 (14%) n, %
  Subjects with any study drug related TEAE: Grade 2 - Moderate: 0 n, %
  Subjects with any study drug related TEAE: Grade 3 - Severe: 0 n, %
  Subjects with any study drug related TEAE: Grade 4 - Life-threatening: 0 n, %
  Subjects with any study drug related TEAE: Grade 5 - Death: 0 n, %
  TEAE: Gastrointestinal disorders: 3 (43%) n, %
1500 mg QD, CKD4 (n = 5)
  Subjects with any TEAE: 3 (60%) n, %
  Subjects with any TEAE by maximum severity: Grade 1 - Mild: 3 (60%) n, %
  Subjects with any TEAE by maximum severity: Grade 2 - Moderate: 0 n, %
  Subjects with any TEAE by maximum severity: Grade 3 - Severe: 0 n, %
  Subjects with any TEAE by maximum severity: Grade 4 - Life-threatening: 0 n, %
  Subjects with any TEAE by maximum severity: Grade 5 - Death: 0 n, %
  Subjects with any study drug related TEAE: 2 (40%) n, %
  Subjects with any study drug related TEAE: Grade 1 - Mild: 2 (40%) n, %
  Subjects with any study drug related TEAE: Grade 2 - Moderate: 0 n, %
  Subjects with any study drug related TEAE: Grade 3 - Severe: 0 n, %
  Subjects with any study drug related TEAE: Grade 4 - Life-threatening: 0 n, %
  Subjects with any study drug related TEAE: Grade 5 - Death: 0 n, %
  TEAE: Gastrointestinal disorders: 2 (40%) n, %
CKD stages 3B and 4, 28 days
  confirmed plasma lactate elevations: no cases of confirmed plasma lactate elevations
  lactic acidosis: no lactic acidosis
  serious adverse events: no incidence of serious adverse events
Day 15, 1500 mg QD and 1000 mg BID treatment groups
  AUC by CKD stage: increased in the T2DM with CKD stage 4 compared to CKD3B
[1]
  Subjects with any TEAE: 10 (48%) n, %
  Subjects with any TEAE by maximum severity: Grade 1 - Mild: 6 (29%) n, %
  Subjects with any TEAE by maximum severity: Grade 2 - Moderate: 4 (19%) n, %
  Subjects with any TEAE by maximum severity: Grade 3 - Severe: 0 n, %
  Subjects with any TEAE by maximum severity: Grade 4 - Life-threatening: 0 n, %
  Subjects with any TEAE by maximum severity: Grade 5 - Death: 0 n, %
  Subjects with any study drug related TEAE: 3 (14%) n, %
  Subjects with any study drug related TEAE: Grade 1 - Mild: 2 (10%) n, %
  Subjects with any study drug related TEAE: Grade 2 - Moderate: 1 (5%) n, %
  Subjects with any study drug related TEAE: Grade 3 - Severe: 0 n, %
  Subjects with any study drug related TEAE: Grade 4 - Life-threatening: 0 n, %
  Subjects with any study drug related TEAE: Grade 5 - Death: 0 n, %
  TEAE: Gastrointestinal disorders: 5 (24%) n, %
Imeglimin Total, CKD4 (n = 17)
  Subjects with any TEAE: 8 (47%) n, %
  Subjects with any TEAE by maximum severity: Grade 1 - Mild: 5 (29%) n, %
  Subjects with any TEAE by maximum severity: Grade 2 - Moderate: 3 (18%) n, %
  Subjects with any TEAE by maximum severity: Grade 3 - Severe: 0 n, %
  Subjects with any TEAE by maximum severity: Grade 4 - Life-threatening: 0 n, %
  Subjects with any TEAE by maximum severity: Grade 5 - Death: 0 n, %
  Subjects with any study drug related TEAE: 3 (18%) n, %
  Subjects with any study drug related TEAE: Grade 1 - Mild: 3 (18%) n, %
  Subjects with any study drug related TEAE: Grade 2 - Moderate: 0 n, %
  Subjects with any study drug related TEAE: Grade 3 - Severe: 0 n, %
  Subjects with any study drug related TEAE: Grade 4 - Life-threatening: 0 n, %
  Subjects with any study drug related TEAE: Grade 5 - Death: 0 n, %
  TEAE: Gastrointestinal disorders: 4 (24%) n, %
After the morning dose on Day 15
  maximum observed concentrations (Cmax): increased in a dose-dependent manner
As CKD severity increased (up to stage 4)
  tolerability: well tolerated
